Reference: patent US11371055B2, “Herbicide resistance genes” (CORTEVA AGRISCIENCE LLC, priority 2005, dated 2022)

Experiments:
[1] = system: 2P782 (Roundup Ready Control) corn; experiment: Herbicide tolerance of 2P782 Roundup Ready control corn in the F1 stack test; type: in vivo, Zea mays; conditions: 1120 g ae/ha 2,4-D DMA
Source text: AAD-12 (v1) (pDAB4101) and elite Roundup Ready inbred (BE1146RR) were reciprocally crossed and F1 seed was collected. The seed from two F1 lines were planted and treated with 70 g ae/ha imazethapyr at the V2 stage to eliminate nulls. To the surviving plants, reps were separated and either treated with 1120 g ae/ha 2,4-D DMA+70 g ae/ha imazethapyr (to confirm presence of AHAS gene) or 1120 g ae/ha 2,4-D DMA+1680 g ae/ha glyphosate (to confirm the presence of the Round Up Ready gene) in a track sprayer calibrated to 187 L/ha. Plants were graded 3 and 16 DAT.

T1 AAD-12 (v1) tobacco = experiment: Elevated 2,4-D DMA rates in greenhouse tobacco, AAD-12; type: in vivo, Nicotiana tabacum
Source text: T1 AAD-12 (v1) plants from an event segregating 3R:1S when selected with 560 g ai/ha Liberty using the same protocol as previously described. T1 AAD-1 (v3) seed was also planted for transformed tobacco controls (see PCT/US2005/014737). Untransformed KY160 was served as the sensitive control. Plants were sprayed using a track sprayer set to 187 L/ha at 140, 560, 2240, 8960, and 35840 g ae/ha 2,4-D DMA and rated 3 and 14 DAT.

[2] = system: AAD-12 (v1)-containing T0 soybean plants; experiment: 2,4-D spray application on T0 soybean; type: in vivo, Glycine max
Source text: Plants that are transferred to the greenhouse can be assayed for the presence of an active PAT gene further with a non-destructive manner by painting a section of leaf of the T0 primary transformant, or progeny thereof, with a glufosinate solution [0.05-2% v/v Liberty Herbicide, preferably 0.25-1.0% (v/v),=500-2000 ppm glufosinate, Bayer Crop Science]. Depending on the concentration used, assessment for glufosinate injury can be made 1-7 days after treatment. Plants can also be tested for 2,4-D tolerance in a non-destructive manner by selective application of a 2,4-D solution in water (0.25-1% v/v commercial 2,4-D dimethylamine salt formulation, preferably 0.5% v/v=2280 ppm 2,4-D ae) to the terminal leaflet of the newly expanding trifoliolate one or two, preferably two, nodes below the youngest emerging trifolioate. This assay allows assessment of 2,4-D sensitive plants 6 hours to several days after application by assessment of leaf flipping or rotation >90 degrees from the plane of the adjacent leaflets. Plants tolerant to 2,4-D will not respond to 2,4-D. To plants will be allowed to self fertilize in the greenhouse to give rise to T1 seed. T1 plants (and to the extent enough T0 plant clones are produced) will be sprayed with a range of herbicide doses to determine the level of herbicide protection afforded by AAD-12 (v1) and PAT genes in transgenic soybean. Rates of 2,4-D used on T0 plants will typically comprise one or two selective rates in the range of 100-1120 g ae/ha using a track sprayer as previously described. T1 plants will be treated with a wider herbicide dose ranging from 50-3200 g ae/ha 2,4-D. Likewise, T0 and T1 plants can be screened for glufosinate resistance by postemergence treatment with 200-800 and 50-3200 g ae/ha glufosinate, respectively. Glyphosate resistance (in plants transformed with constructs that contain EPSPS) or another glyphosate tolerance gene can be assessed in the T1 generation by postemergence applications of glyphosate with a dose range from 280-2240 g ae/ha glyphosate. Analysis of protein expression will occur as described in below. Individual T0 plants were assessed for the presence of the coding region of the gene of interest (AAD-12 (v1) or PAT v6) and copy number. Determination of the inheritance of AAD-12 (v1) will be made using T1 and T2 progeny segregation with respect to herbicide tolerance as described in previous examples. […]

[3] = system: AAD-12 (v1) transformed T0 tobacco events (pDAS1580); experiment: Postemergence herbicide tolerance in T0 tobacco; type: in vivo, Nicotiana tabacum; conditions: 560 g ae/ha fluroxypyr
Source text: T0 plants from each of the 19 events were challenged with a wide range of 2,4-D, triclopyr, or fluroxypyr sprayed on plants that were 3-4 inches tall. Spray applications were made as previously described using a track sprayer at a spray volume of 187 L/ha. 2,4-D dimethylamine salt (Riverside Corp) was applied at 0, 140, 560, or 2240 g ae/ha to representative clones from each event mixed in deionized water. Fluroxypyr was likewise applied at 35, 140, or 560 g ac/ha. Triclopyr was applied at 70, 280, or 1120 g ae/ha. Each treatment was replicated 1-3 times. Injury ratings were recorded 3 and 14 DAT. Every event tested was more tolerant to 2,4-D than the untransformed control line KY160. In several events, some initial auxinic herbicide-related epinasty occurred at doses of 560 g ae/ha 2,4-D or less. Some events were uninjured at 2,4-D applied at 2240 g ac/ha (equivalent to 4× field rate). On the whole, AAD-12 (v1) events were more sensitive to fluroxypyr, followed by triclopyr, and least affected by 2,4-D. The quality of the events with respect to magnitude of resistance was discerned using T0 plant responses to 560 g ae/ha fluroxypyr. Events were categorized into “low” (>40% injury 14 DAT), “medium” (20-40% injury), “high” (<20% injury). Some events were inconsistent in response among replicates and were deemed “variable.”

[4] = event D-2-14 (pDAB4464, CsVMV), spray POST over the top 560 g ae/ha 2,4-D
[5] = event D-3-5 (pDAB4468, AtUbi10), spray POST over the top 560 g ae/ha 2,4-D
[6] = event D-3-6 (pDAB4468, AtUbi10), spray POST over the top 560 g ae/ha 2,4-D
[7] = event D-3-9 (pDAB4468, AtUbi10), spray POST over the top 1120 g ae/ha 2,4-D
[8] = event D-4-17 (pDAB4468, AtUbi10), spray POST over the top 1120 g ae/ha 2,4-D
[9] = event D-5-2 (pDAB4472, AtUbi3), spray POST over the top 560 g ae/ha 2,4-D

## CNC.O=C(O)COc1ccc(Cl)cc1Cl [2,4-D DMA]
[1]
  Average % Injury 16DAT: 19%

## O=C(O)COc1ccc(Cl)cc1Cl [2,4-D, 2,4-dichlorophenoxyacetic acid]
T1 AAD-12 (v1) tobacco; 2240 g ae/ha 2,4-D
  Average % injury 14 DAT: 0%
T1 AAD-12 (v1) tobacco; 8960 g ae/ha 2,4-D
  Average % injury 14 DAT: 0%
T1 AAD-12 (v1) tobacco; 35840 g ae/ha 2,4-D
  Average % injury 14 DAT: 4%
[2]; 560 or 1120 g ae 2,4-D
  response to herbicide spray application: clearly resistant
[2]; [4]
  % injury 2 DAT: 0%
  % injury 7 DAT: 0%
  % injury 14 DAT: 0%
[2]; [5]
  % injury 2 DAT: 0%
  % injury 7 DAT: 0%
  % injury 14 DAT: 0%
[2]; [6]
  % injury 2 DAT: 0%
  % injury 7 DAT: 0%
  % injury 14 DAT: 0%
[2]; [7]
  % injury 2 DAT: 0%
  % injury 7 DAT: 0%
  % injury 14 DAT: 0%
[2]; [8]
  % injury 2 DAT: 5%
  % injury 7 DAT: 0%
  % injury 14 DAT: 0%
[2]; [9]
  % injury 2 DAT: 5%
  % injury 7 DAT: 0%
  % injury 14 DAT: 0%

## Nc1c(Cl)c(F)nc(OCC(=O)O)c1Cl [Fluroxypyr]
[3]; T0 event 1580[1]-004
  Relative Herbicide Tolerance: High
[3]; T0 event 1580[1]-005
  Relative Herbicide Tolerance: Variable
[3]; T0 event 1580[1]-008
  Relative Herbicide Tolerance: Variable
[3]; T0 event 1580[1]-011
  Relative Herbicide Tolerance: High
[3]; T0 event 1580[1]-015
  Relative Herbicide Tolerance: High
[3]; T0 event 1580[1]-016
  Relative Herbicide Tolerance: High
[3]; T0 event 1580[1]-017
  Relative Herbicide Tolerance: High
[3]; T0 event 1580[1]-018
  Relative Herbicide Tolerance: Variable
[3]; T0 event 1580[1]-019
  Relative Herbicide Tolerance: Variable
[3]; T0 event 1580[1]-022
  Relative Herbicide Tolerance: Variable
[3]; T0 event 1580[1]-023
  Relative Herbicide Tolerance: Variable
[3]; T0 event 1580[1]-024
  Relative Herbicide Tolerance: Variable
[3]; T0 event 1580[1]-026
  Relative Herbicide Tolerance: Variable
[3]; T0 event 1580[1]-027
  Relative Herbicide Tolerance: Low
[3]; T0 event 1580[1]-029
  Relative Herbicide Tolerance: Variable
[3]; T0 event 1580[1]-030
  Relative Herbicide Tolerance: High
[3]; T0 event 1580[1]-031
  Relative Herbicide Tolerance: High
[3]; T0 event 1580[1]-032
  Relative Herbicide Tolerance: High
